In ChEMBL document CHEMBL1201862, “PubChem BioAssay data set” (2004):
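Briefly, cells in 96-well plates were exposed to five compound concentrations for 48 h, and endpoints were estimated by linear interpolation. GI50 = concentration required for 50% inhibition of growth.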 Calls of active or inactive are those of the source. No stated cut-off is given here; in the data, active = GI50 up to about 1.1 µM and inactive = higher.

How the values were obtained:
Experiment in all cases: inhibition of tumour cell growth, NCI panel, 48 h
SN12C = system: SN12C
XF498 = system: XF498
RXF 393 = system: RXF 393
NCI-H522 = system: NCI-H522
COLO 205 = system: COLO 205
HT-29 = system: HT-29
SNB-19 = system: SNB-19
ACHN = system: ACHN
UO-31 = system: UO-31
A549 = system: A549
HOP-92 = system: HOP-92
SW-620 = system: SW-620
OVCAR-8 = system: OVCAR-8
LXFL 529 = system: LXFL 529
SF-268 = system: SF-268
Malme-3M = system: Malme-3M
HOP-62 = system: HOP-62
IGROV-1 = system: IGROV-1
SK-MEL-5 = system: SK-MEL-5
NCI-H460 = system: NCI-H460
M14 = system: M14
HOP-18 = system: HOP-18
HCC 2998 = system: HCC 2998
OVCAR-5 = system: OVCAR-5
DMS-273 = system: DMS-273
A498 = system: A498
CCRF-CEM = system: CCRF-CEM
SNB-75 = system: SNB-75
SK-OV-3 = system: SK-OV-3
NCI-H226 = system: NCI-H226
RPMI-8226 = system: RPMI-8226
SR = system: SR
OVCAR-4 = system: OVCAR-4
SK-MEL-28 = system: SK-MEL-28
EKVX = system: EKVX
SF-539 = system: SF-539
DLD-1 = system: DLD-1
K562 = system: K562
CAKI-1 = system: CAKI-1
MOLT-4 = system: MOLT-4
KM-20L2 = system: KM-20L2
SK-MEL-2 = system: SK-MEL-2
DMS-114 = system: DMS-114
HCT-116 = system: HCT-116
U-251 = system: U-251
OVCAR-3 = system: OVCAR-3
KM12 = system: KM12
HCT-15 = system: HCT-15
SF-295 = system: SF-295
SNB-78 = system: SNB-78
NCI-H23 = system: NCI-H23
HL-60 = system: HL-60
786-0 = system: 786-0
UACC-257 = system: UACC-257
UACC-62 = system: UACC-62
LOX IMVI = system: LOX IMVI
TK-10 = system: TK-10

Measured: GI50

CC1(C)C(O)C[C@@H](O)[C@@]2(C)C1CC[C@]1(C)C2C[C@@H](O)[C@@H]2C([C@@]3(C)CC[C@@H](C(C)(C)O)O3)CCC21C (some centres not stated)
inactive: SN12C 13.8 µM | XF498 18.2 µM | RXF 393 13.4 µM | NCI-H522 14.6 µM | COLO 205 16.4 µM | HT-29 17.6 µM | SNB-19 14.2 µM | ACHN 19.1 µM | UO-31 17.5 µM | A549 18.9 µM | HOP-92 9.68 µM | SW-620 16.5 µM | OVCAR-8 18.7 µM | LXFL 529 10.2 µM | SF-268 17.2 µM | Malme-3M 13.4 µM | HOP-62 16.6 µM | IGROV-1 14.5 µM | SK-MEL-5 10.4 µM | NCI-H460 18.9 µM | M14 13.8 µM | HOP-18 16.8 µM | HCC 2998 17.5 µM | OVCAR-5 16.1 µM | DMS-273 14.6 µM | A498 17.3 µM | CCRF-CEM 17.8 µM | SNB-75 15 µM | SK-OV-3 15.9 µM | NCI-H226 19.5 µM | RPMI-8226 16.7 µM | SR 8.83 µM | OVCAR-4 22.4 µM | SK-MEL-28 13.8 µM | EKVX 24.9 µM | SF-539 14.2 µM | DLD-1 16.5 µM | K562 35.2 µM | CAKI-1 18.3 µM | MOLT-4 22 µM | KM-20L2 17.5 µM | SK-MEL-2 14.7 µM | DMS-114 15.5 µM | HCT-116 17 µM | U-251 12.9 µM | OVCAR-3 15.7 µM | KM12 15.9 µM | SF-295 15.7 µM | SNB-78 21.3 µM | NCI-H23 17.4 µM | HL-60 14.2 µM | 786-0 15.3 µM | UACC-257 21 µM | UACC-62 9.93 µM | LOX IMVI 11 µM | TK-10 27.2 µM
12.6 µM: HCT-15
